Data published in US10626144B2, “Peptide derivatives and uses thereof” (Nosopharm, priority 2014, dated 2020).
Like-named read-outs stand apart in the source and are kept apart here. Numbered stars: 1 amine (or outer) side, 2 acyl side, 3 side chain; on linkers, the order of the positions; unused ones are H or OH. Square brackets hold non-standard residues; d marks the D form. Peptide text beside a SMILES is read from it. * marks the point of attachment. Dab(3S-OH) = NC[C@H](O)[C@H](N)C(=O)O; His(τ-Me) = Cn1cnc(C[C@H](N)C(=O)O)c1; His(π-Me) = Cn1cncc1C[C@H](N)C(=O)O; 2Pal = N[C@@H](Cc1ccccn1)C(=O)O; ΔZArg = N=C(N)NCC/C=C(\N)C(=O)O; X2 = CC=C(N[*:1])C(=O)[*:2]; dOrn = NCCC[C@@H](N)C(=O)O; Pra = C#CC[C@H](N)C(=O)O; NH(CH2)4NH2 = NCCCCN*

Legend:
[1] = target: N-type calcium channels (Cav2.2) (Rattus norvegicus (Rat), UniProt Q02294); test: biochemical; type: binding
[2] = test system: Pseudomonas aeruginosa ATCC 27853; test: MIC, broth microdilution (CLSI), reference strain; details: CAMHB
[3] = test system: Escherichia coli ATCC 25922; test: MIC, broth microdilution (CLSI), reference strain; details: CAMHB
[4] = test system: Staphylococcus aureus ATCC 13709; test: MIC, broth microdilution (CLSI), reference strain; details: CAMHB
[5] = test system: Acinetobacter baumannii ATCC 19606; test: MIC, broth microdilution (CLSI), reference strain; details: CAMHB
[6] = class symbol, rat cerebral cortex, [125I]ω-conotoxin GVIA 0.001 nM, 30 minutes at room temperature, read-out: IC50 Cav2.2

C[C@H](NC(=O)[C@@H]1CCCN1C(=O)[C@@H](CCCN)NC(=O)CNC(=O)[C@@H](NC(=O)[C@@H](NC(=O)[C@@H](N)CCCCN)[C@@H](O)CN)[C@@H](O)CN)C(=O)N[C@@H](CCCCN)C(=O)N/C(=C\CCNC(=N)N)C(=O)N[C@@H](CCCCN)C(=O)NCCCCN [22.4] (H-K[Dab(3S-OH)][Dab(3S-OH)]G[dOrn]PAK[ΔZArg]K-{NH(CH2)4NH2})
IC50 [1, 6]: < 30 nM | Pa: MIC Pseudomonas aeruginosa ATCC 27853 [2]: + (≤32 μg/mL) | Ec: MIC Escherichia coli ATCC 25922 [3]: ++ (≤8 μg/mL) | Sa: MIC Staphylococcus aureus ATCC 13709 [4]: ++ (≤8 μg/mL) | Ab: MIC Acinetobacter baumannii ATCC 19606 [5]: − (>32 μg/mL)

N=C(N)NCCC[C@@H](NC(=O)[C@H](CCCCN)NC(=O)[C@H](Cc1cnc[nH]1)NC(=O)[C@@H]1CCCN1C(=O)[C@@H](CCCN)NC(=O)CNC(=O)[C@@H](NC(=O)[C@@H](NC(=O)[C@@H](N)CCCCN)[C@@H](O)CN)[C@@H](O)CN)C(=O)N[C@@H](CCCCN)C(=O)NCCCCN [22.5] (H-K[Dab(3S-OH)][Dab(3S-OH)]G[dOrn]PHK[dR]K-{NH(CH2)4NH2})
IC50 [1, 6]: < 30 nM | Pa: MIC Pseudomonas aeruginosa ATCC 27853 [2]: + (≤32 μg/mL) | Ec: MIC Escherichia coli ATCC 25922 [3]: + (≤32 μg/mL) | Sa: MIC Staphylococcus aureus ATCC 13709 [4]: ++ (≤8 μg/mL) | Ab: MIC Acinetobacter baumannii ATCC 19606 [5]: − (>32 μg/mL)

CC=C(NC(=O)[C@H](CCCCN)NC(=O)[C@H](Cc1cnc[nH]1)NC(=O)[C@@H]1CCCN1C(=O)[C@@H](CCCN)NC(=O)CNC(=O)[C@@H](NC(=O)[C@@H](NC(=O)[C@@H](N)CCCCN)[C@@H](O)CN)[C@@H](O)CN)C(=O)N[C@@H](CCCCN)C(=O)NCCCCN [22.15] (H-K[Dab(3S-OH)][Dab(3S-OH)]G[dOrn]PHK[X2]K-{NH(CH2)4NH2})
IC50 [1]: < 30 nM | IC50 ([1]; value in brackets, rat cerebral cortex, [125I]ω-conotoxin GVIA 0.001 nM, read-out: IC50 Cav2.2): 4 nM | Pa: MIC Pseudomonas aeruginosa ATCC 27853 [2]: − (>32 μg/mL) | Ec: MIC Escherichia coli ATCC 25922 [3]: + (≤32 μg/mL) | Sa: MIC Staphylococcus aureus ATCC 13709 [4]: ++ (≤8 μg/mL) | Ab: MIC Acinetobacter baumannii ATCC 19606 [5]: − (>32 μg/mL)

C[C@H](N)C(=O)N[C@H](C(=O)N[C@H](C(=O)NCC(=O)N[C@H](CCCN)C(=O)N1CCC[C@H]1C(=O)N[C@@H](Cc1cnc[nH]1)C(=O)N[C@@H](CCCCN)C(=O)N/C(=C\CCNC(=N)N)C(=O)N[C@@H](CCCCN)C(=O)NCCCCN)[C@@H](O)CN)[C@@H](O)CN [22.16] (H-A[Dab(3S-OH)][Dab(3S-OH)]G[dOrn]PHK[ΔZArg]K-{NH(CH2)4NH2})
IC50 [1, 6]: < 30 nM | Pa: MIC Pseudomonas aeruginosa ATCC 27853 [2]: − (>32 μg/mL) | Ec: MIC Escherichia coli ATCC 25922 [3]: + (≤32 μg/mL) | Sa: MIC Staphylococcus aureus ATCC 13709 [4]: ++ (≤8 μg/mL) | Ab: MIC Acinetobacter baumannii ATCC 19606 [5]: − (>32 μg/mL)

C[C@H](NC(=O)[C@H](CCCCN)NC(=O)[C@H](Cc1cnc[nH]1)NC(=O)[C@@H]1CCCN1C(=O)[C@@H](CCCN)NC(=O)CNC(=O)[C@@H](NC(=O)[C@@H](NC(=O)[C@@H](N)CCCCN)[C@@H](O)CN)[C@@H](O)CN)C(=O)N[C@@H](CCCCN)C(=O)NCCCCN [22.23] (H-K[Dab(3S-OH)][Dab(3S-OH)]G[dOrn]PHKAK-{NH(CH2)4NH2})
IC50 [1, 6]: < 30 nM | Pa: MIC Pseudomonas aeruginosa ATCC 27853 [2]: − (>32 μg/mL) | Ec: MIC Escherichia coli ATCC 25922 [3]: − (>32 μg/mL) | Sa: MIC Staphylococcus aureus ATCC 13709 [4]: ++ (≤8 μg/mL) | Ab: MIC Acinetobacter baumannii ATCC 19606 [5]: − (>32 μg/mL)

C[C@H](NC(=O)[C@@H](NC(=O)[C@@H](NC(=O)[C@@H](N)CCCCN)[C@@H](O)CN)[C@@H](O)CN)C(=O)N[C@H](CCCN)C(=O)N1CCC[C@H]1C(=O)N[C@@H](Cc1cnc[nH]1)C(=O)N[C@@H](CCCCN)C(=O)N/C(=C\CCNC(=N)N)C(=O)N[C@@H](CCCCN)C(=O)NCCCCN [22.24] (H-K[Dab(3S-OH)][Dab(3S-OH)]A[dOrn]PHK[ΔZArg]K-{NH(CH2)4NH2})
IC50 [1, 6]: < 30 nM | Pa: MIC Pseudomonas aeruginosa ATCC 27853 [2]: − (>32 μg/mL) | Ec: MIC Escherichia coli ATCC 25922 [3]: − (>32 μg/mL) | Sa: MIC Staphylococcus aureus ATCC 13709 [4]: ++ (≤8 μg/mL) | Ab: MIC Acinetobacter baumannii ATCC 19606 [5]: − (>32 μg/mL)

C[C@H](NC(=O)[C@@H](NC(=O)[C@@H](N)CCCCN)[C@@H](O)CN)C(=O)NCC(=O)N[C@H](CCCN)C(=O)N1CCC[C@H]1C(=O)N[C@@H](Cc1cnc[nH]1)C(=O)N[C@@H](CCCCN)C(=O)N/C(=C\CCNC(=N)N)C(=O)N[C@@H](CCCCN)C(=O)NCCCCN [24.1] (H-K[Dab(3S-OH)]AG[dOrn]PHK[ΔZArg]K-{NH(CH2)4NH2})
IC50 [1, 6]: < 30 nM | Pa: MIC Pseudomonas aeruginosa ATCC 27853 [2]: + (≤32 μg/mL) | Ec: MIC Escherichia coli ATCC 25922 [3]: ++ (≤8 μg/mL) | Sa: MIC Staphylococcus aureus ATCC 13709 [4]: ++ (≤8 μg/mL) | Ab: MIC Acinetobacter baumannii ATCC 19606 [5]: + (≤32 μg/mL)

C[C@H](NC(=O)[C@@H](NC(=O)[C@@H](N)CCCCN)[C@@H](O)CN)C(=O)NCC(=O)N[C@H](CCCN)C(=O)N1CCC[C@H]1C(=O)N[C@@H](Cc1cncn1C)C(=O)N[C@@H](CCCCN)C(=O)N/C(=C\CCNC(=N)N)C(=O)N[C@@H](CCCCN)C(=O)NCCCCN [24.14] (H-K[Dab(3S-OH)]AG[dOrn]P[His(π-Me)]K[ΔZArg]K-{NH(CH2)4NH2})
IC50 [1, 6]: < 30 nM | Pa: MIC Pseudomonas aeruginosa ATCC 27853 [2]: + (≤32 μg/mL) | Ec: MIC Escherichia coli ATCC 25922 [3]: ++ (≤8 μg/mL) | Sa: MIC Staphylococcus aureus ATCC 13709 [4]: ++ (≤8 μg/mL) | Ab: MIC Acinetobacter baumannii ATCC 19606 [5]: − (>32 μg/mL)

C[C@H](NC(=O)[C@@H](NC(=O)[C@@H](N)CCCCN)[C@@H](O)CN)C(=O)NCC(=O)N[C@H](CCCN)C(=O)N1CCC[C@H]1C(=O)N[C@@H](Cc1cn(C)cn1)C(=O)N[C@@H](CCCCN)C(=O)N/C(=C\CCNC(=N)N)C(=O)N[C@@H](CCCCN)C(=O)NCCCCN [24.15] (H-K[Dab(3S-OH)]AG[dOrn]P[His(τ-Me)]K[ΔZArg]K-{NH(CH2)4NH2})
IC50 [1, 6]: < 30 nM | Pa: MIC Pseudomonas aeruginosa ATCC 27853 [2]: + (≤32 μg/mL) | Ec: MIC Escherichia coli ATCC 25922 [3]: ++ (≤8 μg/mL) | Sa: MIC Staphylococcus aureus ATCC 13709 [4]: ++ (≤8 μg/mL) | Ab: MIC Acinetobacter baumannii ATCC 19606 [5]: − (>32 μg/mL)

C[C@H](NC(=O)[C@@H](NC(=O)[C@@H](N)CCCCN)[C@@H](O)CN)C(=O)NCC(=O)N[C@H](CCCN)C(=O)N1CCC[C@H]1C(=O)N[C@@H](Cc1ccccn1)C(=O)N[C@@H](CCCCN)C(=O)N/C(=C\CCNC(=N)N)C(=O)N[C@@H](CCCCN)C(=O)NCCCCN [24.17] (H-K[Dab(3S-OH)]AG[dOrn]P[2Pal]K[ΔZArg]K-{NH(CH2)4NH2})
IC50 [1, 6]: < 30 nM | Pa: MIC Pseudomonas aeruginosa ATCC 27853 [2]: − (>32 μg/mL) | Ec: MIC Escherichia coli ATCC 25922 [3]: ++ (≤8 μg/mL) | Sa: MIC Staphylococcus aureus ATCC 13709 [4]: ++ (≤8 μg/mL) | Ab: MIC Acinetobacter baumannii ATCC 19606 [5]: − (>32 μg/mL)

C[C@H](NC(=O)[C@@H](NC(=O)[C@@H](N)CCCCN)[C@@H](O)CN)C(=O)NCC(=O)N[C@H](CCCN)C(=O)N1CCC[C@H]1C(=O)N[C@@H](Cc1ccc(O)cc1)C(=O)N[C@@H](CCCCN)C(=O)N/C(=C\CCNC(=N)N)C(=O)N[C@@H](CCCCN)C(=O)NCCCCN [24.20] (H-K[Dab(3S-OH)]AG[dOrn]PYK[ΔZArg]K-{NH(CH2)4NH2})
IC50 [1, 6]: < 30 nM | Pa: MIC Pseudomonas aeruginosa ATCC 27853 [2]: − (>32 μg/mL) | Ec: MIC Escherichia coli ATCC 25922 [3]: ++ (≤8 μg/mL) | Sa: MIC Staphylococcus aureus ATCC 13709 [4]: ++ (≤8 μg/mL) | Ab: MIC Acinetobacter baumannii ATCC 19606 [5]: − (>32 μg/mL)

C[C@H](NC(=O)[C@@H](NC(=O)[C@@H](N)CCCCN)[C@@H](O)CN)C(=O)NCC(=O)N[C@H](CCCN)C(=O)N1CCC[C@H]1C(=O)N[C@@H](CC(N)=O)C(=O)N[C@@H](CCCCN)C(=O)N/C(=C\CCNC(=N)N)C(=O)N[C@@H](CCCCN)C(=O)NCCCCN [24.22] (H-K[Dab(3S-OH)]AG[dOrn]PNK[ΔZArg]K-{NH(CH2)4NH2})
IC50 [1, 6]: < 30 nM | Pa: MIC Pseudomonas aeruginosa ATCC 27853 [2]: − (>32 μg/mL) | Ec: MIC Escherichia coli ATCC 25922 [3]: ++ (≤8 μg/mL) | Sa: MIC Staphylococcus aureus ATCC 13709 [4]: ++ (≤8 μg/mL) | Ab: MIC Acinetobacter baumannii ATCC 19606 [5]: − (>32 μg/mL)

C#CC[C@H](NC(=O)[C@@H]1CCCN1C(=O)[C@@H](CCCN)NC(=O)CNC(=O)[C@H](C)NC(=O)[C@@H](NC(=O)[C@@H](N)CCCCN)[C@@H](O)CN)C(=O)N[C@@H](CCCCN)C(=O)N/C(=C\CCNC(=N)N)C(=O)N[C@@H](CCCCN)C(=O)NCCCCN [24.67] (H-K[Dab(3S-OH)]AG[dOrn]P[Pra]K[ΔZArg]K-{NH(CH2)4NH2})
IC50 [1, 6]: < 30 nM | Pa: MIC Pseudomonas aeruginosa ATCC 27853 [2]: + (≤32 μg/mL) | Ec: MIC Escherichia coli ATCC 25922 [3]: ++ (≤8 μg/mL) | Sa: MIC Staphylococcus aureus ATCC 13709 [4]: − (>32 μg/mL) | Ab: MIC Acinetobacter baumannii ATCC 19606 [5]: − (>32 μg/mL)

C[C@H](NC(=O)[C@@H](NC(=O)[C@@H](N)CCCCN)[C@@H](O)CN)C(=O)NCC(=O)N[C@H](CCCN)C(=O)N1CCC[C@H]1C(=O)N[C@@H](Cc1cn(C)cn1)C(=O)N[C@@H](CCCCN)C(=O)N/C(=C\CCNC(=N)N)C(=O)O [24.76] (H-K[Dab(3S-OH)]AG[dOrn]P[His(τ-Me)]K[ΔZArg]-OH)
IC50 [1, 6]: > 300 nM | Pa: MIC Pseudomonas aeruginosa ATCC 27853 [2]: − (>32 μg/mL) | Ec: MIC Escherichia coli ATCC 25922 [3]: − (>32 μg/mL) | Sa: MIC Staphylococcus aureus ATCC 13709 [4]: + (≤32 μg/mL) | Ab: MIC Acinetobacter baumannii ATCC 19606 [5]: − (>32 μg/mL)
